Experimental data: patent US11866439B2, “Ion channel modulators” (Praxis Precision Medicines, Inc., priority 2018, dated 2024)

Key:
Type in all cases: cell-based
hNaV1.2-WT = biological target: T1, hNaV1.2-WT (Homo sapiens, UniProt Q99250); assay: Voltage step activated (peak) sodium current, PatchXpress, hNaV1.2-WT; settings: HEK293, HEK-293, steps to 0 mV from half-inactivation holding potential, read-out: hNav1.2 Peak INa (percent inhibition)
T1 construct: expressed in transfected cells; host or cells: HEK-293
T1 sequence (Q99250 whole entry): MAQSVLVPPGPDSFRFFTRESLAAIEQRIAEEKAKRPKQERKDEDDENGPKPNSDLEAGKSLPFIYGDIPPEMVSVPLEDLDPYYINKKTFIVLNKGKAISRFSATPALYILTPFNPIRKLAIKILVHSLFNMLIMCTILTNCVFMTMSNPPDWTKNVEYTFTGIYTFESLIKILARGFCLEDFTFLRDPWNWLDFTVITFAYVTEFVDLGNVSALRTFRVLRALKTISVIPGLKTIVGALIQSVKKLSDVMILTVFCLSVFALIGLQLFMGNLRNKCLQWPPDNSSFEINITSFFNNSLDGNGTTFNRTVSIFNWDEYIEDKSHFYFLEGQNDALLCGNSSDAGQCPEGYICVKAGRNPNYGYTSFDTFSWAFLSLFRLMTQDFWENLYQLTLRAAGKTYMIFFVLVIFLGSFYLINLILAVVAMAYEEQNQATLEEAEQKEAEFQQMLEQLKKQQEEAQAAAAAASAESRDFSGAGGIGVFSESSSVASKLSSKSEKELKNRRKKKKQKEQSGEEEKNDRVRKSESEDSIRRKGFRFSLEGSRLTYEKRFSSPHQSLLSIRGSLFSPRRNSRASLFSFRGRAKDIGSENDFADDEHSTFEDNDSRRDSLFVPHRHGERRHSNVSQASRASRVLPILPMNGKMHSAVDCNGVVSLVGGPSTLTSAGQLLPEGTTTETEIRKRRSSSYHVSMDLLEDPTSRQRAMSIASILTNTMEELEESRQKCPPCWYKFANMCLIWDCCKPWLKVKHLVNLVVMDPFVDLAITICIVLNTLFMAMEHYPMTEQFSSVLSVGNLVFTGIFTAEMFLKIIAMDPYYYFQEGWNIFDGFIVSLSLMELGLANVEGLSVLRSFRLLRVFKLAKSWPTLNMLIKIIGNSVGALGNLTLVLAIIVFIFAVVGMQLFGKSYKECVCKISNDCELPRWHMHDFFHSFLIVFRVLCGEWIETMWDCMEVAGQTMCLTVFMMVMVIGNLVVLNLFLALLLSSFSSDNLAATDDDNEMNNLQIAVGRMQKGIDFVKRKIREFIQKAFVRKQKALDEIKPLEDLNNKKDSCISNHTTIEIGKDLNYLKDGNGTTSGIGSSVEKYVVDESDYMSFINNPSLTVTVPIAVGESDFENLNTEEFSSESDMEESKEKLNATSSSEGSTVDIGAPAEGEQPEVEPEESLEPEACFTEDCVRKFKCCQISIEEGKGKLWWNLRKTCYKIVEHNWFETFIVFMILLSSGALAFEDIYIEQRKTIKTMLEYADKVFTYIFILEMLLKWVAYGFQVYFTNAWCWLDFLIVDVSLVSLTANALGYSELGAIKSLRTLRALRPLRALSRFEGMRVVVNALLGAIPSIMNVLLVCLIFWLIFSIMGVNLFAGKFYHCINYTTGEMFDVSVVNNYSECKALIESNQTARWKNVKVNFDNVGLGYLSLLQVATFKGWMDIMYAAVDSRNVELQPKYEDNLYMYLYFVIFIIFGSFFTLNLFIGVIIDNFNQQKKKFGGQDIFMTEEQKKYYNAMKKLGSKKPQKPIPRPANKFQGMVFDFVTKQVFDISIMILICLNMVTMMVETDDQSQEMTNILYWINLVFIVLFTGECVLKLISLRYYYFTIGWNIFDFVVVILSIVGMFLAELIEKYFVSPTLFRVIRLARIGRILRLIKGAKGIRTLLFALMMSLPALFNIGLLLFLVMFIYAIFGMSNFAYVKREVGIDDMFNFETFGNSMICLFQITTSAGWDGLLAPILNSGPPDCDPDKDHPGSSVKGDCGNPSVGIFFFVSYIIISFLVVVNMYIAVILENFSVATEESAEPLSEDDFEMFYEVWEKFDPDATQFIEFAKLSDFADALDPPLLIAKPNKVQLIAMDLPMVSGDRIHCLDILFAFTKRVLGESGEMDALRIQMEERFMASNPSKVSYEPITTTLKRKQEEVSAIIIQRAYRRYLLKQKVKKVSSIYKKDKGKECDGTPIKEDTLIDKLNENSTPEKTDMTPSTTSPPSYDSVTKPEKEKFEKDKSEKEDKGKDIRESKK
Description: (§1) Functional characterization of exemplary compounds to modulate INa expressed by various human isoforms and disease-causing mutant voltage-gated sodium channels was accomplished using the PatchXpress high throughput electrophysiology platform (Molecular Devices, Sunnyvale, CA). HEK-293 cells expressing a recombinant, human NaV1.X sodium channel (either hNaV1.6-WT, hNaV1.6-R223G, hNaV1.6-N984K, hNaV1.6-N1768D, hNaV1.1-WT, hNaV1.2-WT, hNaV1.5-WT, hNaV1.7-WT, or hNaV1.8-WT) were grown in DMEM/high-glucose Dulbecco's modified, 10% FBS, 2 mM sodium pyruvate, 10 mM HEPES and 400 μg/mL G418. Cells were grown to 50%-80% confluency prior to harvesting. Trypsinized cells were washed, allowed to recover for 1 hour and then resuspended in extracellular recording solution at a concentration of 1×10^6 cells/ml. The onboard liquid handling facility of the PatchXpress was used for dispensing cells and applying test compounds. INa amplitude and stability were determined by analyzing the peak current amplitude.
(§2) Peak INa was evoked by depolarizing steps to 0 mV for 20 ms from a holding potential which evoked half-inactivation (e.g., −60 mV) at a frequency of 0.1 Hz. The voltage of half-inactivation was determined for each cell using a 5 sec prepulse to membrane potentials between −120 mV and −20 mV followed immediately by a voltage step to a fully activating membrane voltage (e.g., 0 mV). Following steady state block with exemplary compounds (e.g., as described herein), the degree of inhibition was measured using the average of three consecutive voltage steps. Percent steady-state inhibition of INa was calculated as: [(INa_compound)/(INa_control)]*100, where INa_compound and INa_control represent INa recorded in the presence or absence of compound, respectively.
(§3) In this table, “A” indicates inhibition between less than 0% to 50% and “B” indicates inhibition of greater than 50% and N/A indicates the compound was not tested.

hNaV1.1-WT = biological target: T2, hNaV1.1-WT (Homo sapiens, UniProt P35498); assay: Voltage step activated (peak) sodium current, PatchXpress, hNaV1.1-WT; settings: HEK293, HEK-293, steps to 0 mV from half-inactivation holding potential, read-out: hNav1.1 Peak INa (percent inhibition)
T2 construct: expressed in transfected cells; host or cells: HEK-293
Description: as §1, §2, §3

human NaV1.6 (hNaV1.6) = biological target: T3, human NaV1.6 (hNaV1.6) (Homo sapiens, UniProt Q9UQD0); assay: Late sodium current (INaL) inhibition, PatchXpress electrophysiology, hNaV1.6; settings: 1 μM; HEK-293 cells expressing hNaV1.6; late current evoked by 300 nM ATX-II
T3 construct: expressed in transfected cells; host or cells: HEK-293
T3 sequence (Q9UQD0 whole entry): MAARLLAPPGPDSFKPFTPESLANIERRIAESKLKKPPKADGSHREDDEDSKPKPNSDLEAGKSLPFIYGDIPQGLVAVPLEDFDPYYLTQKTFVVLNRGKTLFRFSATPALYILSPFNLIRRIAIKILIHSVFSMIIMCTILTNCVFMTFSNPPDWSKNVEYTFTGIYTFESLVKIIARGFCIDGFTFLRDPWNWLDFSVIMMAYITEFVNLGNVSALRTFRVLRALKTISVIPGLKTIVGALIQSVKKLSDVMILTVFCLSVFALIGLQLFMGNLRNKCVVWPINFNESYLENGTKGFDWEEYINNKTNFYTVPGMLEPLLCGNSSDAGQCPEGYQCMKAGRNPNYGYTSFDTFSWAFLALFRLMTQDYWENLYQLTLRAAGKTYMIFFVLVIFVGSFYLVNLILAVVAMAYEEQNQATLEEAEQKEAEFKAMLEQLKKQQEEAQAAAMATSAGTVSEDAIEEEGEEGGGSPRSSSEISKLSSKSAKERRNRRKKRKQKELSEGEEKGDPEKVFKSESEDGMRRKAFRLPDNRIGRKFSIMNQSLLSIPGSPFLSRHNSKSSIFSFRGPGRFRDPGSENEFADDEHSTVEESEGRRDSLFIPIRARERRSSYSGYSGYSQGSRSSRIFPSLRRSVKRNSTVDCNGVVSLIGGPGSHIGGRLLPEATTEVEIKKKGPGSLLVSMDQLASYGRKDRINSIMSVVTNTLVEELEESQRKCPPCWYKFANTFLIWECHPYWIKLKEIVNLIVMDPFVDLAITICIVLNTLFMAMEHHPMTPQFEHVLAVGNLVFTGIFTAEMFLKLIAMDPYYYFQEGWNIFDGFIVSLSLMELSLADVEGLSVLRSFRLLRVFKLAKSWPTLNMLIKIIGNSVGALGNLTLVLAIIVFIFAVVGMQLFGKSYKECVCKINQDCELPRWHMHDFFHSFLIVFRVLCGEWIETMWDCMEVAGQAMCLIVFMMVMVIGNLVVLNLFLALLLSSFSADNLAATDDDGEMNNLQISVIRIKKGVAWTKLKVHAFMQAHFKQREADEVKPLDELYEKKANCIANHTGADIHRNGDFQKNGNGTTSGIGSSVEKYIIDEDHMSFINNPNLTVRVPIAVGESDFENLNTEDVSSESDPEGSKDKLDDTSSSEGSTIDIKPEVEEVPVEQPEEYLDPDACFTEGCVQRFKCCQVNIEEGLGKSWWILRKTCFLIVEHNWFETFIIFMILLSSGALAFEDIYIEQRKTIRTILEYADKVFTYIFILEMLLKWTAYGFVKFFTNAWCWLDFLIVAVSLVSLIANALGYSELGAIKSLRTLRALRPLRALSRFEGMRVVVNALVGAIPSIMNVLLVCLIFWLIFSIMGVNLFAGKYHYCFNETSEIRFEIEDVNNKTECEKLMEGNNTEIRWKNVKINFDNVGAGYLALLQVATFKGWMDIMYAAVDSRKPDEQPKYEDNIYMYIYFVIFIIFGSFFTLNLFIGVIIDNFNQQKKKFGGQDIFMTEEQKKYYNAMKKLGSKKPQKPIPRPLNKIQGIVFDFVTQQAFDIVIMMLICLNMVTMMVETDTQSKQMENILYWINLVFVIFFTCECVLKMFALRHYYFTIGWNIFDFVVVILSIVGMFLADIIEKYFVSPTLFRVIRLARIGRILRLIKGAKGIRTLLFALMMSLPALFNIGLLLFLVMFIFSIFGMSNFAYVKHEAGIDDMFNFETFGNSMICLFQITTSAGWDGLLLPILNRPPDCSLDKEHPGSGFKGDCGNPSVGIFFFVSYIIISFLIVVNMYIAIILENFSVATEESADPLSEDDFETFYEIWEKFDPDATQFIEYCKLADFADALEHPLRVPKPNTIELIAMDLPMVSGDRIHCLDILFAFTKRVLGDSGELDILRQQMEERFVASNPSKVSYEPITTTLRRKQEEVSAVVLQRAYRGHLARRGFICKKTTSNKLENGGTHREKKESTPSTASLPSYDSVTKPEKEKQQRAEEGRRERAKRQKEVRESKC
Description: HEK-293 cells expressing recombinant, human NaV1.6 (hNaV1.6) were grown in DMEM/high-glucose Dulbecco's modified, 10% FBS, 2 mM sodium pyruvate, 10 mM HEPES and 400 μg/mL G418. Cells were grown to 50%-80% confluency prior to harvesting. […] The onboard liquid handling facility of the PatchXpress was used for dispensing cells and applying test compounds. […] INaL was evoked by depolarizing pulses to 0 mV for 200 ms from a non-inactivating holding potential (e.g., −120 mV) at a frequency of 0.1 Hz. INaL amplitude and stability were determined by analyzing the mean current amplitude over the final 20 ms of the test pulse. […] Percent steady-state inhibition of INaL was calculated as: [(INaL_compound)/(INaL_control)]*100, where INaL_compound and INaL_control represent INaL recorded in the presence or absence of compound, respectively.

Compound	inhibition at 1 µM (hNaV1.2-WT)	inhibition at 1 µM (hNaV1.1-WT)	NaV 1.6 Assay Data (percent inhibition of INaL at hNaV1.6) (human NaV1.6 (hNaV1.6))
COC(F)(F)c1nnc2cnc(-c3ccc(O[C@@H](C)C(F)(F)F)nc3)cn12 [Compound 59, 3-[difluoro(methoxy)methyl]-6-[6-[(1S)-2,2,2-trifluoro-1-methyl-ethoxy]-3-pyridyl]-[1,2,4]triazolo[4,3-a]pyrazine]	> 50%	> 50%	
COC(F)(F)c1nnc2cnc(-c3ccc(OC(C)(C)C(F)(F)F)nc3)cn12 [Compound 56, 3-[difluoro(methoxy)methyl]-6-[6-(2,2,2-trifluoro-1,1-dimethyl-ethoxy)-3-pyridyl]-[1,2,4]triazolo[4,3-a]pyrazine]	> 50%	> 50%	
COC(F)(F)c1nnc2cnc(-c3cnc(O[C@@H](C)C(F)(F)F)c(F)c3)cn12 [Compound 6B, 3-[difluoro(methoxy)methyl]-6-[5-fluoro-6-[(1S)-2,2,2-trifluoro-1-methyl-ethoxy]-3-pyridyl]-[1,2,4]triazolo[4,3-a]pyrazine]	> 50%	> 50%	
CCOC(F)(F)c1nnc2cnc(-c3cnc(OCC(F)(F)F)c(F)c3)cn12 [Compound 10]	< 50%	> 50%	
CCOC(F)(F)c1nnc2ccc(-c3cnc(OCC(F)(F)F)c(F)c3)cn12 [Compound 3, 3-[ethoxy(difluoro)methyl]-6-[5-fluoro-6-(2,2,2-trifluoroethoxy)-3-pyridyl]-[1,2,4]triazolo[4,3-a]pyridine]		> 50%	
COC(F)(F)c1nnc2cnc(-c3ccc(OC4(C(F)(F)F)CCC4)nc3)cn12 [Compound 57]			C (“C” indicates inhibition of greater than 70%)
COC(F)(F)c1nnc2cnc(-c3cnc(OC4(C(F)(F)F)CCC4)c(F)c3)cn12 [Compound 11, 3-[difluoro(methoxy)methyl]-6-[5-fluoro-6-[1-(trifluoromethyl)cyclobutoxy]-3-pyridyl]-[1,2,4]triazolo[4,3-a]pyrazine]		> 50%	
COC(F)(F)c1nnc2cnc(-c3cnc(OCC(F)(F)F)c(F)c3)cn12 [Compound 53, 3-[difluoro(methoxy)methyl]-6-[5-fluoro-6-(2,2,2-trifluoroethoxy)-3-pyridyl]-[1,2,4]triazolo[4,3-a]pyrazine]	< 50%	> 50%	
COC(F)(F)c1nnc2cnc(-c3ccc(O[C@H](C)C(F)(F)F)nc3)cn12 [Compound 62, 3-[difluoro(methoxy)methyl]-6-[6-[(1R)-2,2,2-trifluoro-1-methyl-ethoxy]-3-pyridyl]-[1,2,4]triazolo[4,3-a]pyrazine]	> 50%	> 50%	
